The test system of assay [1] is Salmonella typhimurium. Nature of the assay: Antimicrobial activity against Salmonella Typhimurium ATCC 14028 assessed as inhibition of planktonic growth at 40 uM at 25 degC after 24 hrs. As to conditions: Salmonella enterica subsp. enterica serovar Typhimurium. In kind it is functional, organism-based.
For assay [2], the system named is Salmonella typhimurium. Description: Antimicrobial activity against Salmonella Typhimurium ATCC 14028 assessed as inhibition of planktonic growth at 20 uM at 25 degC after 24 hrs. The class given is functional, organism-based. As to conditions: Salmonella enterica subsp. enterica serovar Typhimurium.
In assay [3] the test system is Pseudomonas aeruginosa. Nature of the assay: Antimicrobial activity against Pseudomonas aeruginosa assessed as inhibition of planktonic growth at 20 uM at 25 degC after 24 hrs. In kind it is functional, organism-based.
Assay [4] has as its system Pseudomonas aeruginosa. Nature of the assay: Antimicrobial activity against Pseudomonas aeruginosa assessed as inhibition of planktonic growth at 10 uM at 25 degC after 24 hrs. In kind it is functional, organism-based.
Assay [5] relates to Pseudomonas aeruginosa. Nature of the assay: Antibiofilm activity in Pseudomonas aeruginosa assessed as inhibition of biofilm formation at 25 degC after 24 hrs. In kind it is functional, organism-based.
The subject of assay [6] is Salmonella typhimurium. Description: Antibiofilm activity in Salmonella Typhimurium ATCC 14028 assessed as inhibition of biofilm formation at 25 degC after 24 hrs. In kind it is functional, organism-based, Salmonella enterica subsp. enterica serovar Typhimurium. Conditions: Salmonella enterica, ATCC 14028, 24 h.
Assay [7] relates to Salmonella typhimurium. Nature of the assay: Antimicrobial activity against Salmonella Typhimurium ATCC 14028 assessed as inhibition of planktonic growth at 4 uM at 25 degC after 24 hrs. In kind it is functional, organism-based. As to conditions: Salmonella enterica subsp. enterica serovar Typhimurium.
The test system of assay [8] is Pseudomonas aeruginosa. Description: Antimicrobial activity against Pseudomonas aeruginosa assessed as inhibition of planktonic growth at 40 uM at 25 degC after 24 hrs. The class given is functional, organism-based.
The test system of assay [9] is Salmonella typhimurium. Description: Antimicrobial activity against Salmonella Typhimurium ATCC 14028 assessed as inhibition of planktonic growth at 10 uM at 25 degC after 24 hrs. The class given is functional, organism-based. Conditions: Salmonella enterica subsp. enterica serovar Typhimurium.
For assay [10], the system named is Salmonella typhimurium. Nature of the assay: Antimicrobial activity against Salmonella Typhimurium ATCC 14028 assessed as inhibition of planktonic growth at 400 uM at 25 degC after 24 hrs. The class given is functional, organism-based. Conditions: Salmonella enterica subsp. enterica serovar Typhimurium.

As a reminder, the IC50 is the point on the concentration scale where inhibition reaches its midpoint.

The source made the active and inactive calls. The calls are words filed in the database; no cut-off is given here.

Take `CCCCCCCCn1c(-c2ccc(-c3ccccc3)cc2)cnc1N`: the inhibition result in assay [1] and in assay [2] was “Active” in each case. Also, the inhibition result in assay [3], in assay [4] and in assay [7] was “inactive” throughout. Besides, the half-maximal inhibitory concentration (IC50) in [5] came out at 8.9 µM; in assay [6], 3.3 µM.

For `CCCCn1c(-c2ccc(-c3ccccc3)cc2)cnc1N`, the inhibition result in assay [1] and in [2] was “Active” each time. In addition, the IC50 is 41.6 µM in [5] and 21.1 µM in [6].

For the compound `CCCCCCCCCCCCCn1c(-c2ccccc2)cnc1N`, the inhibition entry in [8], in assay [3] and in assay [7] was “inactive” throughout. Also, the inhibition result in assay [1] and in [9] was “Active” throughout. Also, the IC50 in assay [5] came to 27.3 µM; in assay [6], 6 µM.

Turning to `CCCCCCCn1c(-c2ccc(-c3ccccc3)cc2)cnc1N`, the inhibition entry in assay [8], in assay [2] and in assay [3] was “Active” each time. For the same compound, in assay [9], the inhibition entry is “inactive”. Further, the figures for the IC50 in assay [5] and in assay [6] were 25.2 µM and 9.3 µM, respectively.

`CCCCCCCC[n+]1c(-c2ccc([N+](=O)[O-])cc2)cn2cccnc21.[O-][Cl+3]([O-])([O-])[O-]`: the inhibition entry in [8] is “Active”. Also, the inhibition result in assay [3] and in [4] was “inactive” in each case. In addition, the figures for the IC50 in assay [5] and in assay [6] were 18.7 µM and 63.6 µM, respectively.

`CCCCCCCC[n+]1c(-c2ccc(-c3ccc(-c4ccccc4)cc3)cc2)cn2cccnc21.[O-][Cl+3]([O-])([O-])[O-]`: the inhibition result in assay [9] was “Active”. Further, the IC50 in [6] came to 5 µM. The inhibition entry in assay [7] was “inactive”.

On to `CCCCCCCCn1c(-c2ccccc2)cnc1N`, for which the inhibition result in assay [8], in assay [3] and in [9] was “inactive” each time. The inhibition entry in [2] was “Active”. The IC50 in assay [5] is 18.5 µM; in assay [6], 11.9 µM.

As to `CCCCCCCCn1c(-c2ccc(S(C)(=O)=O)cc2)cnc1N`, the inhibition result in assay [1] was “Active”. For the same compound, the inhibition result in assay [2] and in assay [3] was “inactive” each time. For the same compound, the IC50 in assay [5] turned out to be 4.9 µM; in assay [6], 29.1 µM.

As for `CCCCCCCC[n+]1c(-c2ccc(OC)cc2)cn2cccnc21.[O-][Cl+3]([O-])([O-])[O-]`, the inhibition entry in [8], in assay [3] and in assay [4] was “inactive” in each case. Further, the inhibition result in assay [1] and in assay [2] was “Active” each time. Also, the results for the IC50 in [5] and in assay [6] were 8.7 µM and 34.8 µM, respectively.

Regarding `CCCCCCCCCCn1c(-c2ccccc2)cnc1N`, the inhibition result in [2] and in [9] was “Active” in each case. The inhibition result in assay [3], in [4] and in assay [7] was “inactive” each time. For the same compound, the IC50 in assay [5] came to 15 µM; in assay [6], 6.1 µM.

Turning to `CCCCCCCC[n+]1c(-c2ccc(F)cc2)cn2cccnc21.[O-][Cl+3]([O-])([O-])[O-]`, the inhibition result in [8] was “Active”. In addition, the inhibition result in [1], in assay [2] and in assay [3] was “inactive” throughout. The IC50 was found to be 19.5 µM in assay [5] and 35.7 µM in assay [6].

As for `CCCCCCCCn1c(-c2cccc3ccccc23)cnc1N`, the inhibition entry in [3] is “Active”. Also, the inhibition result in assay [4], in assay [9] and in [7] was “inactive” in each case. The IC50 is 17.6 µM in [5] and 6.6 µM in [6].

In the case of `CCCCn1c(-c2ccc(Cl)cc2)cnc1N`, the inhibition result in assay [8] and in assay [3] was “inactive” throughout. The IC50 was 16.7 µM in assay [5] and 57.8 µM in assay [6].

Turning to `CCCCCCCC[n+]1c(-c2ccc(SC)cc2)cn2cccnc21.[O-][Cl+3]([O-])([O-])[O-]`, the inhibition result in assay [8], in [1] and in assay [2] was “Active” in each case. The inhibition result in assay [3] is “inactive”. In addition, the IC50 was determined as 9.3 µM in [5] and 20.7 µM in [6].

Regarding `Nc1ncc(-c2ccc(Cl)cc2)n1C1CCCCCCC1`, the inhibition entry in [1] and in assay [2] was “Active” throughout. Besides, the inhibition result in assay [9] is “inactive”. In addition, the IC50 was found to be 48.7 µM in [5] and 12.9 µM in assay [6].

Take `CCCCCCCC[n+]1c(-c2cccc(Br)c2)cn2cccnc21.[O-][Cl+3]([O-])([O-])[O-]`: the inhibition entry in assay [8] and in assay [2] was “Active” throughout. In addition, the inhibition entry in assay [3] and in assay [9] was “inactive” each time. The figures for the IC50 in assay [5] and in assay [6] were 7 µM and 7.3 µM, respectively.

As for `CCCCCCCCCCn1c(-c2ccc(Cl)cc2)cnc1N`, the inhibition entry in assay [8], in [3] and in assay [7] was “inactive” throughout. In addition, in [9], the inhibition result is “Active”. The IC50 was 22.3 µM in assay [5] and 4.1 µM in [6].

Take `CCCCCCCCCCCCCn1c(-c2ccc(Cl)cc2)cnc1N`: the inhibition entry in assay [1] and in [2] was “inactive” in each case. The IC50 in assay [5] stood at 33.9 µM; in assay [6], 19.5 µM.

Take `CCCCCCCCCn1c(-c2ccc(Cl)cc2)cnc1N`: the inhibition entry in assay [2], in assay [3] and in assay [9] was “Active” in each case. The inhibition entry in assay [4] and in assay [7] was “inactive” each time. The IC50 in [5] turned out to be 8 µM; in assay [6] it was 4 µM.

As to `CCCCCCCCCCCn1c(-c2ccc(Cl)cc2)cnc1N`, the inhibition result in [2] and in [9] was “Active” throughout. The IC50 in assay [5] came out at 44 µM; in [6] it was 4.1 µM. Further, the inhibition entry in assay [7] was “inactive”.

`CCCCCCCCn1c(-c2cccc(Br)c2)cnc1N`: the inhibition entry in [8] and in assay [2] was “Active” each time. In addition, the inhibition result in [3] and in assay [9] was “inactive” each time. Also, the IC50 worked out at 40.6 µM in assay [5] and 11.2 µM in assay [6].

Turning to `Nc1nc(-c2ccccc2)c(-c2ccc(C(F)(F)F)cc2)[nH]1`, the inhibition result in assay [1] and in assay [7] was “inactive” each time. Further, the inhibition result in assay [10] was “Active”. In addition, the IC50 in assay [6] was found to be 29.2 µM.

For `CCCCCCCCCCCCn1c(-c2ccc(Cl)cc2)cnc1N`, the inhibition result in [2], in [9] and in [7] was “inactive” throughout. Further, the IC50 in [5] is 49.7 µM; in assay [6], 6.2 µM.

`CCCCCCCC[n+]1c(-c2ccc(F)c(F)c2)cn2cccnc21.[O-][Cl+3]([O-])([O-])[O-]`: the inhibition result in assay [8], in assay [3], in assay [4] and in [9] was “Active” each time. Further, the IC50 in assay [5] worked out at 12.7 µM; in assay [6] it was 3.8 µM. Besides, the inhibition result in [7] is “inactive”.

As to `O=[N+]([O-])c1ccc(-c2cn3cccnc3[n+]2C2CCCCCCCCCCC2)cc1.[O-][Cl+3]([O-])([O-])[O-]`, the inhibition result in assay [8] and in assay [3] was “Active” in each case. In addition, the inhibition entry in assay [2], in assay [4] and in [9] was “inactive” in each case. Besides, the IC50 was determined as 15.1 µM in assay [5] and 9.8 µM in [6].

Regarding `Nc1ncc(-c2ccc(-c3ccccc3)cc2)n1C1CCCCC1`, the inhibition entry in assay [1] and in [2] was “Active” throughout. Moreover, the inhibition result in assay [9] is “inactive”. Also, the IC50 came to 69.7 µM in assay [5] and 12.6 µM in [6].

Turning to `CCCCCCCCCCCn1c(-c2ccccc2)cnc1N`, the inhibition entry in [1] and in assay [9] was “Active” in each case. The inhibition entry in [3], in assay [4] and in assay [7] was “inactive” throughout. The IC50 in assay [5] stood at 16.3 µM; in assay [6] it was 7.2 µM.

Regarding `Nc1nc(-c2ccc(F)cc2)c(C(=O)Nc2ccccc2)[nH]1`, the inhibition entry in [1] and in [7] was “inactive” each time. In addition, in assay [10], the inhibition result is “Active”. Besides, in assay [6], the IC50 is 182 µM.

Take `CCCCCCCCn1c(-c2ccc(Cl)c(Cl)c2)cnc1N`: in assay [9], the inhibition result is “Active”. Moreover, the IC50 in assay [6] was found to be 3.7 µM. Besides, the inhibition result in assay [7] is “inactive”.

For `Nc1ncc(-c2ccc(-c3ccccc3)cc2)n1C1CCCCCC1`, the inhibition result in [1], in assay [2] and in assay [9] was “Active” throughout. Also, the IC50 in assay [5] was 6.6 µM; in assay [6], 12.5 µM.
